Measurements published in patent US9115134B2, “6-triazolopyridazine sulfanyl benzothiazole derivatives as MET inhibitors” (SANOFI, priority 2007, dated 2015).

Assays:
[1] = biological target: T1, MET (Homo sapiens, UniProt P08581); assay: Test A: HTRF MET assay in 96-well format; format: biochemical; parameters: The His-Tev-MET (956-1390) recombinant DNA in pFastBac (Invitrogen) is transfected into insect cells; His tag (N, cleaved yes); TEV cleavage site (N); made in house; host or cells: SF21 insect cells (baculovirus, pFastBac); details: MET 5 nM, 10 μM ATP
Procedure, shortened: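 Purified human MET cytoplasmic domain (956-1390, His tag cleaved), 5 nM, with compound (0.17 nM–10 μM, 3% DMSO) in MOPS pH 7.4; 1 μg/ml poly-(GAT), 10 μM ATP, 5 mM MgCl2, 10 min at ambient temperature. HTRF read-out (streptavidin-XL/anti-pTyr Eu cryptate, 2 h); % inhibition from 665/620 ratios.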
Target sequence in this assay (P08581 956-1390): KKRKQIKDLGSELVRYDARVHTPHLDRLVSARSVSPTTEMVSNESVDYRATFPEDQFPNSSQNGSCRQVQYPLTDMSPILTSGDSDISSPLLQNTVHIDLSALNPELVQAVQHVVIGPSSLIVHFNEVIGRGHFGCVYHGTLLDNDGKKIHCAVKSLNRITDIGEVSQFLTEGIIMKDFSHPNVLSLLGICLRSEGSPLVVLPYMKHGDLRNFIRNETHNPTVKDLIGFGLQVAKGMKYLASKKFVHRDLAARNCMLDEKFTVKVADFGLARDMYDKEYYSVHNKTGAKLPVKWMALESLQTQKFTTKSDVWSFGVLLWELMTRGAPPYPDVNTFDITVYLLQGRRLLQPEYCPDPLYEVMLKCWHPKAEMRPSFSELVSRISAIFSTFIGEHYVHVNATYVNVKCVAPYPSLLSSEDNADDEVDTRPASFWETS

[2] = system: HCT116 cells, MKN45 cells; assay: Test C: Measurement of cell proliferation by 14C-thymidine pulse; format: cell-based; details: 14C-thymidine incorporation, 96 h of treatment; cell line not given
Procedure, shortened: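 HCT116 (2500/well, DMEM) and MKN45 (7500/well, RPMI), both with 10% FCS, treated after 4 h with 10 concentrations from 10 000 to 0.3 nM (3-fold, duplicate). ¹⁴C-thymidine (0.1 μCi/well) added at 72 h; incorporation read after 24 h pulse, 96 h total treatment.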

[3] = biological target: T1, MET; assay: Test B: Inhibition of the autophosphorylation of MET; ELISA technique (pppY1230,1234,1235) in MKN45 cells; format: cell-based; parameters: Seed MKN45 cells into 96-well plates (Cell coat BD polylysine) at 20 000 cells/well; endogenous in cells; host or cells: MKN45 cells; details: 1 h treatment, PhosphoMET ELISA
Procedure, shortened: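 Adhered cells treated 1 h with six compound concentrations in duplicate, final 10 000 to 30 nM, against DMSO controls. Cells then lysed at 4° C for 30 min in Triton/SDS/deoxycholate buffer with phosphatase inhibitors. Phospho-MET measured by sandwich ELISA with anti-phospho MET antibody and HRP detection, absorbance at 450 nm.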
Target sequence in this assay (P08581 25-1390): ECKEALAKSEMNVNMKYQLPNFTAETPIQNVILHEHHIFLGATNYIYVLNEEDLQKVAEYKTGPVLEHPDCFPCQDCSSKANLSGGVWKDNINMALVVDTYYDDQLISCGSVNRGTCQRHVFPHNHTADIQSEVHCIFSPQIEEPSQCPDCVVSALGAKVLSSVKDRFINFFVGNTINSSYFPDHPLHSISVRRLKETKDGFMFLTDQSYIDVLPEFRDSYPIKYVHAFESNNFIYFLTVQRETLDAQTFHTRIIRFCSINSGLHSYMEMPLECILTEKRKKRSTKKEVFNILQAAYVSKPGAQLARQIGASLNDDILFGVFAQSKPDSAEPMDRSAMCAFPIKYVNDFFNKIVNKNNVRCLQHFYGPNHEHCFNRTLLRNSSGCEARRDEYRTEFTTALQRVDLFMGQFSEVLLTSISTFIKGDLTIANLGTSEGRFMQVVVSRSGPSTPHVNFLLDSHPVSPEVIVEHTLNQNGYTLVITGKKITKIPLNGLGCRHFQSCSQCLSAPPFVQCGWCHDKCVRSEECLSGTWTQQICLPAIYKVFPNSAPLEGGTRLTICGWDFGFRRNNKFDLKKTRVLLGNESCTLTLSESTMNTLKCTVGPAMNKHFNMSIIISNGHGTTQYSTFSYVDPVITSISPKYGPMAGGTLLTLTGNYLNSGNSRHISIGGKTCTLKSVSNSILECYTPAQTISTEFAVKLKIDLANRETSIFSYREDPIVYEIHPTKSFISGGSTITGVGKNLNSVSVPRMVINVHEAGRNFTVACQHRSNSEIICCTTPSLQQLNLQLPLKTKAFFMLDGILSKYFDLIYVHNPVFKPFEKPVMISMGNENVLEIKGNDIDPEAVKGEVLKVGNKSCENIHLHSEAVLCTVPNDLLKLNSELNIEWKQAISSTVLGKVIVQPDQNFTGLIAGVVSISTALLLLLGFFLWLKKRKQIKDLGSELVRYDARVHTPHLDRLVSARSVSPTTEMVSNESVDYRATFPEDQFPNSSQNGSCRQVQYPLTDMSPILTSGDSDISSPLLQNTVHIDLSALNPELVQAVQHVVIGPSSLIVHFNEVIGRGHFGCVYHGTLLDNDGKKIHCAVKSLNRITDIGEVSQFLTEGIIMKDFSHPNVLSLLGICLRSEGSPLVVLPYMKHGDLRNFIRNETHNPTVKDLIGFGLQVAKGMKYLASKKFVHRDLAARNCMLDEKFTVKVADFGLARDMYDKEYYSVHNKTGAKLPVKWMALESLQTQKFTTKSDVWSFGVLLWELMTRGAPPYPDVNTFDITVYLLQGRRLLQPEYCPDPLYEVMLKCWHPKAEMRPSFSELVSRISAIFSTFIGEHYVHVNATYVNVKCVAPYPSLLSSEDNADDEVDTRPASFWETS

| IC50 [1] [nM] | IC50 [2] [nM] | IC50 [3] [nM] | SMILES |
| --- | --- | --- | --- |
| < 100 | < 1000 | < 100 | COCCNc1ccc2nnc(Sc3ccc4nc(NC(=O)C5CC5)sc4c3)n2n1 [Example 40, N-[6-({6-[(2-Methoxyethyl)amino][1,2,4]triazolo[4,3-b]pyridazin-3-yl}sulphanyl)-1,3-benzothiazol-2-yl]cyclopropanecarboxamide] |
| < 100 | < 1000 | 100 to 500 | CCOC(=O)Nc1nc2ccc(Sc3nnc4ccc(OC)nn34)cc2s1 [Example 45, Ethyl {6-[(6-methoxy[1,2,4]triazolo[4,3-b]pyridazin-3-yl)sulphanyl]-1,3-benzothiazol-2-yl}carbamate] |
| < 100 | < 1000 | 100 to 500 | COCCCOC(=O)Nc1nc2ccc(Sc3nnc4ccc(OC)nn34)cc2s1 [Example 46, 3-Methoxypropyl {6-[(6-methoxy[1,2,4]triazolo[4,3-b]pyridazin-3-yl)sulphanyl]-1,3-benzothiazol-2-yl}carbamate] |
| < 100 | < 1000 | 100 to 500 | COCCCOC(=O)Nc1nc2ccc(Sc3nnc4ccc(NCCOC)nn34)cc2s1 [Example 47, 3-Methoxypropyl[6-({6-[(2-methoxyethyl)amino][1,2,4]triazolo[4,3-b]pyridazin-3-yl}sulphanyl)-1,3-benzothiazol-2-yl]carbamate] |
| < 100 | < 1000 | 100 to 500 | CCOc1ccc2nnc(Sc3ccc4nc(N)sc4c3)n2n1 [Example 50, 6-[(6-Ethoxy[1,2,4]triazolo[4,3-b]pyridazin-3-yl)sulphanyl]-1,3-benzothiazol-2-amine] |
| < 100 | < 1000 | < 100 | CC(CO)(CCl)COc1ccc2nnc(Sc3ccc4nc(NC(=O)OC(C)(C)C)sc4c3)n2n1 (stereo not drawn) [Example 52, 2-Methylpropan-2-yl[6-({6-[3-chloro-2-(hydroxymethyl)-2-methylpropoxy]-[1,2,4]triazolo[4,3-b]pyridazin-3-yl}sulphanyl)-1,3-benzothiazol-2-yl]carbamate] |
| < 100 | < 1000 | < 100 | CCOc1ccc2nnc(Sc3ccc4nc(NC(=O)CCOC)sc4c3)n2n1 [Example 58, N-{6-[(6-Ethoxy[1,2,4]triazolo[4,3-b]pyridazin-3-yl)sulphanyl]-1,3-benzothiazol-2-yl}-3-methoxypropanamide] |
| < 100 | < 1000 | < 100 | CCOc1ccc2nnc(Sc3ccc4nc(NC(=O)NC5CC5)sc4c3)n2n1 [Example 59, 1-cyclopropyl-3-{6-[(6-ethoxy[1,2,4]triazolo[4,3-b]pyridazin-3-yl)sulphanyl]-1,3-benzothiazol-2-yl}urea] |

The next lines start with the molecule.

| SMILES | IC50 [1] [nM] | IC50 [2] [nM] | IC50 [3] [nM] |
| --- | --- | --- | --- |
| COCCNc1ccc2nnc(Sc3ccc4nc(NC(=O)CCCN5CCOCC5)sc4c3)n2n1 [Example 39, N-[6-({6-[(2-Methoxyethyl)amino][1,2,4]triazolo[4,3-b]pyridazin-3-yl}sulphanyl)-1,3-benzothiazol-2-yl]-4-(morpholin-4-yl)butanamide] | < 100 | < 1000 | < 100 |
| CC(=O)Nc1nc2ccc(Sc3nnc4ccc(-c5ccc(F)cc5)nn34)cc2s1 [Example 41, N-(6-{[6-(4-Fluorophenyl)[1,2,4]triazolo[4,3-b]pyridazin-3-yl]sulphanyl}-1,3-benzothiazol-2-yl)acetamide] | < 100 | < 1000 | < 100 |
| O=C(NCC[N+]1([O-])CCOCC1)Nc1nc2ccc(Sc3nnc4ccc(-c5ccc(F)cc5)nn34)cc2s1 [Example 42, 1-(6-{[6-(4-Fluorophenyl)[1,2,4]triazolo[4,3-b]pyridazin-3-yl]sulphanyl}-1,3-benzothiazol-2-yl)-3-[2-(4-oxidomorpholin-4-yl)ethyl]urea] | < 100 | < 1000 | < 100 |
| Cn1cc(-c2ccc3nnc(Sc4ccc5nc(N)sc5c4)n3n2)cn1 [Example 43, 6-{[6-(1-Methyl-1H-pyrazol-4-yl)[1,2,4]triazolo[4,3-b]pyridazin-3-yl]sulphanyl}-1,3-benzothiazol-2-amine] | < 100 | < 1000 | < 100 |
| O=C(NCCN1CCOCC1)Nc1nc2ccc(Sc3nnc4n3N=C(c3ccc(F)cc3)CC4)cc2s1 [Example 44, 1-(6-{[6-(4-Fluorophenyl)-7,8-dihydro-[1,2,4]triazolo[4,3-b]pyridazin-3-yl]sulphanyl}-1,3-benzothiazol-2-yl)-3-[2-(morpholin-4-yl)ethyl]urea] | < 100 | < 1000 | < 100 |
| COCCNc1ccc2nnc(Sc3ccc4nc(NC(=O)NCCN5CCCC5)sc4c3)n2n1 [Example 48, 1-[6-({6-[(2-Methoxyethyl)amino][1,2,4]triazolo[4,3-b]pyridazin-3-yl}sulphanyl)-1,3-benzothiazol-2-yl]-3-[2-(pyrrolidin-1-yl)ethyl]urea] | < 100 | < 1000 | 100 to 500 |
| COc1ccc2nnc(Sc3ccc4nc(NC(=O)NCCN5CCCC5)sc4c3)n2n1 [Example 49, 1-{6-[(6-Methoxy[1,2,4]triazolo[4,3-b]pyridazin-3-yl)sulphanyl]-1,3-benzothiazol-2-yl}-3-[2-(pyrrolidin-1-yl)ethyl]urea] | < 100 | < 1000 | < 100 |
| CC(C)(C)OC(=O)Nc1nc2ccc(Sc3nnc4ccc(OCC(O)CCCl)nn34)cc2s1 (stereo not drawn) [Example 51, 2-Methylpropan-2-yl(6-{[6-(4-chloro-2-hydroxybutoxy)[1,2,4]triazolo[4,3-b]pyridazin-3-yl]sulphanyl}-1,3-benzothiazol-2-yl)carbamate] | < 100 | < 1000 | < 100 |
| Nc1nc2ccc(Sc3nnc4ccc(-c5cccc(F)c5)nn34)cc2s1 [Example 53, 6-{[6-(3-Fluorophenyl)[1,2,4]triazolo[4,3-b]pyridazin-3-yl]sulphanyl}-1,3-benzothiazol-2-amine] | < 100 | < 1000 | < 100 |
| Nc1nc2ccc(Sc3nnc4n3N=C(c3cccc(F)c3)CC4)cc2s1 [Example 54, 6-{[6-(3-Fluorophenyl)-7,8-dihydro[1,2,4]triazolo[4,3-b]pyridazin-3-yl]sulphanyl}-1,3-benzothiazol-2-amine] | < 100 | < 1000 | 100 to 500 |
| O=C(Nc1nc2ccc(Sc3nnc4ccc(-c5ccc(F)cc5)nn34)cc2s1)N1CCOCC1 [Example 55, N-(6-{[6-(4-Fluorophenyl)[1,2,4]triazolo[4,3-b]pyridazin-3-yl]sulphanyl}-1,3-benzothiazol-2-yl)morpholine-4-carboxamide] | < 100 | < 1000 | 100 to 500 |
| Nc1nc2ccc(Sc3nnc4ccc(-c5ccccc5F)nn34)cc2s1 [Example 56, 6-{[6-(2-Fluorophenyl)[1,2,4]triazolo[4,3-b]pyridazin-3-yl]sulphanyl}-1,3-benzothiazol-2-amine] | < 100 | < 1000 | 100 to 500 |
| CCC(C)CNc1nc2ccc(Sc3nnc4ccc(NCCOC)nn34)cc2s1 (stereo not drawn) [Example 57, N-(2-Methoxyethyl)-3-({2-[(2-methylbutyl)amino]-1,3-benzothiazol-6-yl}sulphanyl)[1,2,4]triazolo[4,3-b]pyridazin-6-amine] | < 100 | < 1000 | 100 to 500 |
| O=C(Nc1nc2ccc(Sc3nnc4ccc(-c5ccc(F)cc5)nn34)cc2s1)C1CC1 [Example 60, N-(6-{[6-(4-Fluorophenyl)[1,2,4]triazolo[4,3-b]pyridazin-3-yl]sulphanyl}-1,3-benzothiazol-2-yl)cyclopropanecarboxamide] | < 100 | < 1000 | < 100 |
| O=C(Nc1nc2ccc(Sc3nnc4n3N=C(c3ccc(F)cc3)CC4)cc2s1)C1CC1 [Example 61, N-(6-{[6-(4-Fluorophenyl)-7,8-dihydro[1,2,4]triazolo[4,3-b]pyridazin-3-yl]sulphanyl}-1,3-benzothiazol-2-yl)cyclopropanecarboxamide] | < 100 | < 1000 | < 100 |
| Nc1nc2ccc(Sc3nnc4ccc(NC5CCCCC5)nn34)cc2s1 [Example 62, 3-[(2-Amino-1,3-benzothiazol-6-yl)sulphanyl]-N-cyclohexyl[1,2,4]triazolo[4,3-b]pyridazin-6-amine] | < 100 | < 1000 | < 100 |
| Nc1nc2ccc(Sc3nnc4ccc(OC5CCCCC5)nn34)cc2s1 [Example 63, 6-{[6-(Cyclohexyloxy)[1,2,4]triazolo[4,3-b]pyridazin-3-yl]sulphanyl}-1,3-benzothiazol-2-amine] | < 100 | < 1000 | 100 to 500 |
